According to US20190358198A1, “USE OF OVATODIOLIDE FOR PREPARING A COMPOSITION FOR INHIBITING PROTEIN SYNTHESIS OF GASTRIC HELICOBACTER PYPORI” (Syi Biotechnology Co.,Ltd., priority 2018, published 2019):
≈ marks a conversion by molar mass, not a printed value.

What was measured:
[1] = test system: Helicobacter pylori type strain (H. pylori 26695); assay: Minimum bacteriostatic concentration by agar-well diffusion (inhibitory rings); type: cell-based; conditions: for Inhibitory rings: cultivated two days
Procedure: Different concentrations of ovatodiolide disks are used to cultivate with Helicobacter pylori for two days respectively. Then, the minimum concentrations for inhibiting Helicobacter pylori are determined by using agar-well diffusion. The results are used for analyzing the minimum concentration of ovatodiolide for inhibiting the growth of Helicobacter pylori type strain (H. pylori 26695). […] Based on the experimental results, 10 μM and 20 μM of ovatodiolide have inhibitory rings; the diameters of the inhibitory rings are 10±0.5 mm and 19±0 mm respectively. This proves that the minimum bacteriostatic concentration of ovatodiolide for inhibiting Helicobacter pylori is 10 μM.

[2] = test system: Hp reference strain 26695; assay: Minimum bactericidal concentration, serial dilution and spread plate method; type: cell-based, Helicobacter pylori; conditions: cultivated six hours; type strain 26695
Procedure: (§1) Different concentrations of ovatodiolide are prepared by using serial dilution method, and Helicobacter pylori type strain and multidrug-resistant gastric Helicobacter pylori (v633, v1354) separated from laboratory are cultivated for six hours respectively. Then, ovatodiolide is analyzed by using spread plate method to observe the number of colony growth, and analyze the minimum bactericidal concentrations of ovatodiolide for completely killing Helicobacter pylori type strain and multidrug-resistant strains. Based on the results on Table 2, the minimum bactericidal concentration of ovatodiolide for Helicobacter pylori type strain is 200 μM, and the minimum bactericidal concentrations for multidrug-resistant strains v633 and v1354 are 100 μM.

Hp v1354 = assay: as above; type: cell-based, Helicobacter pylori; conditions: cultivated six hours; multidrug-resistant strain v1354
Procedure: as §1

Hp v633 = assay: as above; type: cell-based, Helicobacter pylori; conditions: cultivated six hours; multidrug-resistant strain v633
Procedure: as §1

[3] = test system: extracts of Escherichia coli (E. coli S30); assay: In vitro transcription/translation system with pGL3 luciferase readout; type: biochemical; conditions: 10 μM; FIG. 1
Procedure: The structure of ovatodiolide is similar to that of the medicines in antibiotics for inhibiting protein generation. In order to understand whether the mechanism of ovatodiolide for inhibiting Helicobacter Pylori is related to protein synthesis, let ovatodiolide and extracts of Escherichia coli (E. coli S30) to take effect for 10 minutes by using in vitro transcription/translation systems. Then, pGL3 luciferase is added for carrying out transcription and translation reaction for 2 hours. Finally, the reacted sample is added with luciferin for it to present color by using Dual-Luciferase Reporter Assay System. Then, microplate luminometer is used to determine the […] in order to find out whether ovatodiolide can inhibit protein synthesis.
Among them, inhibition of 30S subunit using kanamycin and inhibition of […] using erythromycin are used as control groups.

[4] = test system: protein RpsB in 30S ribosomal subunit; assay: Western blot analysis of RpsB content in Helicobacter pylori lysates; type: cell-based; conditions: H. pylori cultivated with ovatodiolide of different concentrations for 6 hours; FIG. 2
Procedure: In this embodiment, the process of protein translation has three steps, namely, initiation, elongation and termination of ribosomes. In order to further analyze whether ovatodiolide is effected on ribosomes causing protein synthesis unable to proceed smoothly, western blot analysis is used to determine the content of protein RpsB in 30S ribosomal subunit. Helicobacter pylori is cultivated with ovatodiolide of different concentrations for 6 hours, and extract total cell lysates. Separate total cell lysates by using 10% SDS-PAGE, transfer protein using PVDF membrane, and carry out hybridization with protein using RpsB antibody. Then, detect RpsB antibody using anti-rabbit antibody; finally, a chromogenic reagent is added, and observe results by using the apparatus Azure C400 Biosystems.
FIG. 2 is an expression of 30S ribosomal subunits RpsB analyzed by using western blot analysis. Wherein kanamycin (400 μM) and erythromycin (400 μM) are used as control groups.

Compound `C=C1C(=O)O[C@@H]2/C=C(\C)C[C@H]3C=C(CC/C=C(\C)CC[C@@H]12)C(=O)O3` [ovatodiolide] has a minimum bacteriostatic concentration ([1]; agar-well diffusion, H. pylori 26695) of 10 µM, an Inhibitory rings ([1]; ovatodiolide 10 μM) of 10±0.5 mm and an Inhibitory rings ([1]; ovatodiolide 20 μM) of 19±0 mm. It also gave a Minimum bactericidal concentration [2] of 200 µM (≈ 65.7 µg/mL), a Minimum bactericidal concentration (Hp v1354) of 100 µM (≈ 32.8 µg/mL) and a Minimum bactericidal concentration (Hp v633) of 100 µM (≈ 32.8 µg/mL). The “inhibition of protein synthesis” value [3] was “more than 50%” and the “expression of protein RpsB” value [4] was “reduces significantly”.
